The target of the assay is b-Raf(V600E) (Homo sapiens (Human), UniProt P15056, V600E). Put plainly: Raf/Mek Amplified Luminescence Proximity Homogeneous Assay (Alpha Screen). Particulars: b-Raf(V600E) approximately 4 pM; biotinylated Mek, kinase dead approximately 10 nM; ATP 10 μM; pre-incubation 60 minutes; reaction 3 hours at room temperature; read-out: mut-B-RAF IC50. The format is biochemical. Put shortly:
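Raf pre-incubated with compound and kinase-dead biotinylated Mek (~10 nM) for 60 min, room temperature, in 50 mM Tris pH 7.5, 15 mM MgCl2, 0.01% BSA, 1 mM DTT; ATP-started reaction 1 or 3 h, EDTA stop. Phospho-MEK detected by anti-p-MEK1/2 AlphaScreen; IC50 by non-linear regression.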
b-Raf(V600E), sequence (P15056 whole entry V600E): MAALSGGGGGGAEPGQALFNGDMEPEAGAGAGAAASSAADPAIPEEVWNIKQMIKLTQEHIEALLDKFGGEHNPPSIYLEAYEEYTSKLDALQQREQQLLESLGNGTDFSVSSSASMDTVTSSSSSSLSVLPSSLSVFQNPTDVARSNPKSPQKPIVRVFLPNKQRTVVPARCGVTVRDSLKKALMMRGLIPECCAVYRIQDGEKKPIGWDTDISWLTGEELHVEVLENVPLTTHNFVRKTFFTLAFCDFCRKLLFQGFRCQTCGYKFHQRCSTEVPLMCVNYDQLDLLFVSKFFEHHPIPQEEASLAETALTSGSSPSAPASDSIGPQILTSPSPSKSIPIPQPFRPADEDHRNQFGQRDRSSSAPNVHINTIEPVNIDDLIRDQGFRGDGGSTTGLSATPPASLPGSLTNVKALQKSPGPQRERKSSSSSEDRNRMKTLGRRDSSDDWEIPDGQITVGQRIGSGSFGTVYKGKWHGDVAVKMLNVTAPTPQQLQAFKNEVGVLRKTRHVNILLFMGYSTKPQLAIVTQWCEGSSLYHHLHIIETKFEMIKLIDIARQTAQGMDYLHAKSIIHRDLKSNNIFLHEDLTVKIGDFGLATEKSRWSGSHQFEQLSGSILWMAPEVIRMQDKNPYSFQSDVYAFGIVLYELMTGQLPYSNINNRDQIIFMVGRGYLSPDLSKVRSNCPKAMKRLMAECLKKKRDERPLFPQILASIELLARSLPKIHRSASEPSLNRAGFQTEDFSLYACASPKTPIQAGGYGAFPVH
For the compound `CC(C)Nc1nccc(-c2[nH]c(C3CC3)nc2-c2cc(F)cc(NS(C)(=O)=O)c2Cl)n1` [Example 1AT, N-(2-Chloro-3-(2-cyclopropyl-5-(2-(isopropylamino)pyrimidin-4-yl)-1H-imidazol-4-yl)-5-fluorophenyl)methanesulfonamide], the IC50 is 25 nM. The value for `COC(=O)N[C@@H](C)CNc1nccc(-c2[nH]c(C(C)(C)C)nc2-c2cccc(NS(C)(=O)=O)c2F)n1` [Example 2C, (S)-Methyl 1-(4-(2-tert-butyl-4-(2-fluoro-3-(methylsulfonamido)phenyl)-1H-imidazol-5-yl)pyrimidin-2-ylamino)propan-2-ylcarbamate] was 0.61 nM; that for `COC(=O)N[C@@H](C)CNc1nccc(-c2[nH]c(C3CC3)nc2-c2cc(C)cc(NS(=O)(=O)CC(F)(F)F)c2F)n1` [Example 1BO, (S)-Methyl 1-(4-(2-cyclopropyl-4-(2-fluoro-5-methyl-3-(2,2,2-trifluoroethylsulfonamido)phenyl)-1H-imidazol-5-yl)pyrimidin-2-ylamino)propan-2-ylcarbamate] was 0.25 nM; that for `COC(=O)N[C@@H](C)CNc1nccc(-c2nc(C3CC3)[nH]c2-c2cc(Cl)cc(NS(=O)(=O)c3cccc(F)c3)c2F)n1` [Example 1AX, (S)-Methyl 1-(4-(5-(5-chloro-2-fluoro-3-(3-fluorophenylsulfonamido)phenyl)-2-cyclopropyl-1H-imidazol-4-yl)pyrimidin-2-ylamino)propan-2-ylcarbamate] was 0.33 nM. As for `CC(C)(C)c1nc(-c2cc(F)cc(NS(=O)(=O)c3c(F)cccc3F)c2Cl)c(-c2ccnc(N)n2)[nH]1` [Example 1BP, N-(3-(5-(2-Aminopyrimidin-4-yl)-2-tert-butyl-1H-imidazol-4-yl)-2-chloro-5-fluorophenyl)-2,6-difluorobenzenesulfonamide], the figure is 0.26 nM; as for `COC(=O)N[C@@H](C)CNc1nccc(-c2[nH]c(C3CCC3)nc2-c2cc(Cl)cc(NS(C)(=O)=O)c2F)n1` [Example 1BT, (S)-Methyl 1-(4-(4-(5-chloro-2-fluoro-3-(methylsulfonamido)phenyl)-2-cyclobutyl-1H-imidazol-5-yl)pyrimidin-2-ylamino)propan-2-ylcarbamate], 0.23 nM; as for `Cc1cc(NS(C)(=O)=O)c(Cl)c(-c2nc(C3(C)CC3)[nH]c2-c2ccnc(NCCC#N)n2)c1` [Example 1AZ, N-(2-Chloro-3-(5-(2-(2-cyanoethylamino)pyrimidin-4-yl)-2-(1-methylcyclopropyl)-1H-imidazol-4-yl)-5-methylphenyl)methanesulfonamide], 0.29 nM.

`COC(=O)N[C@@H](C)CNc1nccc(-c2nc(C3CC3)[nH]c2-c2cc(Cl)cc(NS(=O)(=O)CC3CC3)c2F)n1` [Example 1AC, (S)-Methyl 1-(4-(5-(5-chloro-3-(cyclopropylmethylsulfonamido)-2-fluorophenyl)-2-cyclopropyl-1H-imidazol-4-yl)pyrimidin-2-ylamino)propan-2-ylcarbamate]: the half-maximal inhibitory concentration (IC50) is 0.26 nM.

As to `CCCS(=O)(=O)Nc1cc(F)cc(-c2nc(C3CC3)[nH]c2-c2ccnc(N)n2)c1Cl` [Example 1BS, N-(3-(5-(2-Aminopyrimidin-4-yl)-2-cyclopropyl-1H-imidazol-4-yl)-2-chloro-5-fluorophenyl)propane-1-sulfonamide], the IC50 turned out to be 0.2 nM. The value for `COC(=O)N[C@@H](C)CNc1nccc(-c2[nH]c(C3CC3)nc2-c2cc(Cl)cc(NS(C)(=O)=O)c2Cl)n1` [Example 1X, (S)-Methyl 1-(4-(2-cyclopropyl-4-(2,5-dichloro-3-(methylsulfonamido)phenyl)-1H-imidazol-5-yl)pyrimidin-2-ylamino)propan-2-ylcarbamate] was 0.18 nM; that for `CC(C)(C)c1nc(-c2cc(Cl)cc(NS(C)(=O)=O)c2F)c(-c2ccnc(N)n2)[nH]1` [Example 1BD, N-(3-(5-(2-Aminopyrimidin-4-yl)-2-tert-butyl-1H-imidazol-4-yl)-5-chloro-2-fluorophenyl)methanesulfonamide] was 3 nM; that for `COC(=O)N[C@@H](C)CNc1nccc(-c2[nH]c(C3CC3)nc2-c2cccc(NS(C)(=O)=O)c2)n1` [Example 4K, (S)-Methyl 1-(4-(2-cyclopropyl-4-(3-(methylsulfonamido)phenyl)-1H-imidazol-5-yl)pyrimidin-2-ylamino)propan-2-ylcarbamate] was 8 nM. The value for `CS(=O)(=O)Nc1cc(Cl)cc(-c2nc(C3CC3)[nH]c2-c2ccnc(NCCC#N)n2)c1F` [Example 2A, N-(5-Chloro-3-(5-(2-(2-cyanoethylamino)pyrimidin-4-yl)-2-cyclopropyl-1H-imidazol-4-yl)-2-fluorophenyl)methanesulfonamide] was 0.08 nM; that for `CCCS(=O)(=O)Nc1cccc(-c2nc(C(C)(C)C)[nH]c2-c2ccnc(NC[C@H](C)NC(=O)OC)n2)c1F` [Example 4B, (S)-Methyl 1-(4-(2-tert-butyl-4-(2-fluoro-3-(propylsulfonamido)phenyl)-1H-imidazol-5-yl)pyrimidin-2-ylamino)propan-2-ylcarbamate] was 0.38 nM; that for `COC(=O)N[C@@H](C)CNc1nccc(-c2nc(C3(C)CC3)[nH]c2-c2cccc(NS(C)(=O)=O)c2Cl)n1` [Example 1AO, (S)-Methyl 1-(4-(5-(2-chloro-3-(methylsulfonamido)phenyl)-2-(1-methylcyclopropyl)-1H-imidazol-4-yl)pyrimidin-2-ylamino)propan-2-ylcarbamate] was 1 nM.

Consider `Nc1nccc(-c2[nH]c(C3CC3)nc2-c2cccc(NS(=O)(=O)c3c(F)cccc3F)c2Cl)n1` [Example 2H, N-(3-(5-(2-aminopyrimidin-4-yl)-2-cyclopropyl-1H-imidazol-4-yl)-2-chlorophenyl)-2,6-difluorobenzenesulfonamide], for which the IC50 was 1 nM. The value for `COC(=O)N[C@@H](C)CNc1nccc(-c2[nH]c(C3CC3)nc2-c2cc(F)cc(NS(=O)(=O)C3CC3)c2Cl)n1` [Example 1AE, (S)-Methyl 1-(4-(4-(2-chloro-3-(cyclopropanesulfonamido)-5-fluorophenyl)-2-cyclopropyl-1H-imidazol-5-yl)pyrimidin-2-ylamino)propan-2-ylcarbamate] was 0.3 nM; that for `Nc1nccc(-c2[nH]c(C3CC3)nc2-c2cc(Cl)cc(NS(=O)(=O)c3c(F)cccc3F)c2F)n1` [Example 1BF, N-(3-(5-(2-Aminopyrimidin-4-yl)-2-cyclopropyl-1H-imidazol-4-yl)-5-chloro-2-fluorophenyl)-2,6-difluorobenzenesulfonamide] was 0.1 nM.

On to `CS(=O)(=O)Nc1cc(F)cc(-c2nc(C3CC3)[nH]c2-c2ccncn2)c1Cl` [Example 2J, N-(2-Chloro-3-(2-cyclopropyl-5-(pyrimidin-4-yl)-1H-imidazol-4-yl)-5-fluorophenyl)methanesulfonamide], for which the IC50 worked out at 87 nM.

As to `COC(=O)N[C@@H](C)CNc1nccc(-c2[nH]c(C3CC3)nc2-c2cc(Cl)cc(NS(=O)(=O)C(C)C)c2)n1` [Example 1M, (S)-Methyl 1-(4-(4-(3-chloro-5-(1-methylethylsulfonamido)phenyl)-2-cyclopropyl-1H-imidazol-5-yl)pyrimidin-2-ylamino)propan-2-ylcarbamate], the half-inhibitory concentration (IC50) is 0.63 nM. As for `CCC(C)S(=O)(=O)Nc1cc(Cl)cc(-c2nc(C(C)(C)C)[nH]c2-c2ccnc(NC[C@H](C)NC(=O)OC)n2)c1` (stereo partly drawn) [Example 1H, Methyl (2S)-1-(4-(2-tert-butyl-4-(3-chloro-5-(1-methylpropylsulfonamido)phenyl)-1H-imidazol-5-yl)pyrimidin-2-ylamino)propan-2-ylcarbamate], the figure is 0.5 nM; as for `CCCS(=O)(=O)Nc1cc(F)cc(-c2nc(C3CC3)[nH]c2-c2ccnc(NCC)n2)c1Cl` [Example 1AS, N-(2-Chloro-3-(2-cyclopropyl-5-(2-(ethylamino)pyrimidin-4-yl)-1H-imidazol-4-yl)-5-fluorophenyl)propane-1-sulfonamide], 1 nM; as for `CCCS(=O)(=O)Nc1ccc(F)c(-c2nc(C3CC3)[nH]c2-c2ccnc(NC[C@H](C)NC(=O)OC)n2)c1Cl` [Example 1AF, Methyl (2S)-1-(4-(4-(2-chloro-6-fluoro-3-(propylsulfonamido)phenyl)-2-cyclopropyl-1H-imidazol-5-yl)pyrimidin-2-ylamino)propan-2-ylcarbamate], 0.45 nM. The value for `CC1(c2nc(-c3cccc(NS(C)(=O)=O)c3Cl)c(-c3ccnc(NCCC#N)n3)[nH]2)CC1` [Example 1BC, N-(2-Chloro-3-(5-(2-(2-cyanoethylamino)pyrimidin-4-yl)-2-(1-methylcyclopropyl)-1H-imidazol-4-yl)phenyl)methanesulfonamide] was 1 nM; that for `COC(=O)N[C@@H](C)CNc1nccc(-c2[nH]c(C(C)(C)C)nc2-c2cc(Cl)cc(NS(=O)(=O)C3CC3)c2C)n1` [Example 1N, (S)-Methyl 1-(4-(2-tert-butyl-4-(5-chloro-3-(cyclopropanesulfonamido)-2-methylphenyl)-1H-imidazol-5-yl)pyrimidin-2-ylamino)propan-2-ylcarbamate] was 204 nM. The value for `CCS(=O)(=O)Nc1cc(Cl)cc(-c2[nH]c(C3CC3)nc2-c2ccnc(NC[C@H](C)NC(=O)OC)n2)c1F` [Example 1Z, (S)-Methyl 1-(4-(5-(5-chloro-3-(ethylsulfonamido)-2-fluorophenyl)-2-cyclopropyl-1H-imidazol-4-yl)pyrimidin-2-ylamino)propan-2-ylcarbamate] was 0.24 nM; that for `CCCS(=O)(=O)Nc1cc(Cl)cc(-c2nc(C(C)(C)C)[nH]c2-c2ccnc(N)n2)c1F` [Example 1BH, N-(3-(5-(2-Aminopyrimidin-4-yl)-2-tert-butyl-1H-imidazol-4-yl)-5-chloro-2-fluorophenyl)propane-1-sulfonamide] was 0.08 nM; that for `COC(=O)N[C@@H](C)CNc1nccc(-c2[nH]c(-c3ccc(F)cc3F)nc2-c2cc(F)cc(NS(C)(=O)=O)c2Cl)n1` [Example 1BY] was 2040 nM.

The values above are taken from US8563553B2, “Compounds and compositions as protein kinase inhibitors” (Novartis AG, priority 2009, dated 2013).
